Measured values from US20240279221A1, “HETEROCYCLIC COMPOUNDS AND METHODS OF USE” (Schrödinger, Inc., priority 2021, published 2024).

Legend:
[1] = target: SOS1:KRAS (G12C) interaction (Homo sapiens (Human), UniProt Q07889); experiment: SOS1-KRas(G12C) FRET Assay; type: binding; conditions: 0.5 nM His10-SOS1 (res. 564-1049), 2.5 nM GST-KRAS (res. 1-169, G12C); read-out: SOS-KRas(G12C) FRET IC50
Summary of the method: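 TR-FRET measured binding of His10-SOS1 (res. 564-1049, 0.5 nM) to GST-KRAS G12C (res. 1-169, 2.5 nM), with anti-GST-Eu(K) and anti-6His-XL665 labels, in PBS with BSA, MgCl2, KF and DTT; 0.5% DMSO. Compound and SOS1 were pre-incubated 15 min at 25° C, KRAS was added, and the plate was read at 665/615 nm after 2 h at RT. IC50 and Hill slope came from non-linear regression.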

human SOS1 = human SOS1 (Homo sapiens (Human), UniProt Q07889); experiment: Surface Plasmon Resonance (SPR) SOS1 Binding Assay; conditions: biotinylated SOS1 (res. 564-1049), 25° C., kinetic or steady state fit, read-out: KD for hSOS1
Sequence of human SOS1 (Q07889 564-1049): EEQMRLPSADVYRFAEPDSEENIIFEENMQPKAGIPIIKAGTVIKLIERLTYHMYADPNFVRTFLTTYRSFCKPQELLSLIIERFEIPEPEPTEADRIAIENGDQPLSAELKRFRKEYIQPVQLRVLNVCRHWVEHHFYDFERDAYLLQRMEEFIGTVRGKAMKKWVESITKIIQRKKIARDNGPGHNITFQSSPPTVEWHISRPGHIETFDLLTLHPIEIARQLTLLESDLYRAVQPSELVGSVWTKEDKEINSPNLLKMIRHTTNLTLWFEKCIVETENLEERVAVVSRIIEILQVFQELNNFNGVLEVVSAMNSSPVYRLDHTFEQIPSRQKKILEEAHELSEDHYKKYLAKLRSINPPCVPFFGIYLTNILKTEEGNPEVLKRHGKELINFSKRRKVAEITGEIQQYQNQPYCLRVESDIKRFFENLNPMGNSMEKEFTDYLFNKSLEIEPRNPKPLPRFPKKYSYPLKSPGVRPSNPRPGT
Summary of the method: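 Biotinylated human SOS1 (res. 564-1049, N-terminal Avi tag) captured on streptavidin chip to ~3,000 RU; 25° C., Tris buffer pH 8.0 with 1 mM MgCl2, 5% DMSO running buffer. Compound series (top 100, 50 or 0.5 μM) injected 60 s, dissociation 600 s; double-referenced KD from 1:1 kinetic or steady-state fit.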

Sequence of SOS1:KRAS (G12C) interaction (Q07889 564-1049, stated change not applied): as the sequence (Q07889 564-1049) above

Compound	IC50 [1]	Kd (human SOS1)
C[C@@H](Nc1nn(C)c(=O)c2cc(=O)n(C3CCOCC3)cc12)c1cccc2c(F)coc12 [Example 46, (R)-4-((1-(3-fluorobenzofuran-7-yl)ethyl)amino)-2-methyl-6-(tetrahydro-2H-pyran-4-yl)-2,6-dihydropyrido[3,4-d]pyridazine-1,7-dione]	62.4 nM	21 nM
C[C@@H](Nc1nn(C)c(=O)c2cc(=O)n(C3CCOCC3)cc12)c1cccc2c1OCC2(F)F [Example 47, (R)-4-((1-(3,3-difluoro-2,3-dihydrobenzofuran-7-yl)ethyl)amino)-2-methyl-6-(tetrahydro-2H-pyran-4-yl)-2,6-dihydropyrido[3,4-d]pyridazine-1,7-dione]	82.4 nM	6 nM
COc1c(=O)n(C2CCCCC2)cc2c(N[C@H](C)c3cccc(C(F)F)c3F)nn(C)c(=O)c12 [Example 49, (R)-6-cyclohexyl-4-((1-(3-(difluoromethyl)-2-fluorophenyl)ethyl)amino)-8-methoxy-2-methyl-2,6-dihydropyrido[3,4-d]pyridazine-1,7-dione]	51.3 nM	13 nM
C[C@@H](Nc1nn(C)c(=O)c2cc(=O)n(C3CC4(COC4)C3)cc12)c1cccc(C(F)F)c1F [Example 51, (R)-4-((1-(3-(difluoromethyl)-2-fluorophenyl)ethyl)amino)-2-methyl-6-(2-oxaspiro[3.3]heptan-6-yl)pyrido[3,4-d]pyridazine-1,7(2H,6H)-dione]	47.3 nM	17 nM
CNCc1ccccc1-c1csc([C@@H](C)Nc2nn(C)c(=O)c3cc(=O)n(C4CC4)cc23)c1 [Example 57, (R)-6-cyclopropyl-2-methyl-4-((1-(4-(2-((methylamino)methyl)phenyl)thiophen-2-yl)ethyl)amino)-2,6-dihydropyrido[3,4-d]pyridazine-1,7-dione]	21.9 nM	8 nM
C[C@@H](Nc1nn(C)c(=O)c2cc(=O)n(C3CCOCC3)cc12)c1cccc2sccc12 [Example 62, (R)-4-((1-(benzo[b]thiophen-4-yl)ethyl)amino)-2-methyl-6-(tetrahydro-2H-pyran-4-yl)-2,6-dihydropyrido[3,4-d]pyridazine-1,7-dione]	75.3 nM	13 nM
C[C@@H](Nc1nn(C)c(=O)c2cc(=O)n(C3CC3)cc12)c1cccc2sccc12 [Example 64, (R)-4-((1-(benzo[b]thiophen-4-yl)ethyl)amino)-6-cyclopropyl-2-methyl-2,6-dihydropyrido[3,4-d]pyridazine-1,7-dione]	126 nM	31 nM
C[C@@H](Nc1nn(C)c(=O)c2cc(=O)n(C3(C#N)CC3)cc12)c1cccc(C(F)F)c1F [Example 66, (R)-1-(4-((1-(3-(difluoromethyl)-2-fluorophenyl)ethyl)amino)-2-methyl-1,7-dioxo-1,7-dihydropyrido[3,4-d]pyridazin-6(2H)-yl)cyclopropane-1-carbonitrile]	72.5 nM	26 nM
C[C@@H](Nc1nn(C)c(=O)c2cc(=O)n(C3CCOCC3)cc12)c1cccc2c1CCC2(F)F [Example 67, (R)-4-((1-(1,1-difluoro-2,3-dihydro-1H-inden-4-yl)ethyl)amino)-2-methyl-6-(tetrahydro-2H-pyran-4-yl)pyrido[3,4-d]pyridazine-1,7(2H,6H)-dione]	24.6 nM	10 nM
C[C@@H](Nc1nn(C)c(=O)c2cc(=O)n(C34CC(C(=O)N(C)C)(C3)C4)cc12)c1cccc(C(F)F)c1F [Example 69, (R)-3-(4-((1-(3-(difluoromethyl)-2-fluorophenyl)ethyl)amino)-2-methyl-1,7-dioxo-1,7-dihydropyrido[3,4-d]pyridazin-6(2H)-yl)-N,N-dimethylbicyclo[1.1.1]pentane-1-carboxamide]	34.8 nM	10 nM
C[C@@H](Nc1nn(C)c(=O)c2cc(=O)n(C3(C(F)F)CC3)cc12)c1cccc(C(F)(F)C(C)(C)O)c1F [Example 70, (R)-4-((1-(3-(1,1-difluoro-2-hydroxy-2-methylpropyl)-2-fluorophenyl)ethyl)amino)-6-(1-(difluoromethyl)cyclopropyl)-2-methyl-2,6-dihydropyrido[3,4-d]pyridazine-1,7-dione]	16.7 nM	12 nM
C[C@@H](Nc1nn(C)c(=O)c2c(Br)c(=O)n(C3(C(F)F)CC3)cc12)c1cccc(C(F)F)c1F [Example 72, (R)-8-bromo-4-((1-(3-(difluoromethyl)-2-fluorophenyl)ethyl)amino)-6-(1-(difluoromethyl)cyclopropyl)-2-methyl-2,6-dihydropyrido[3,4-d]pyridazine-1,7-dione]	68.3 nM	60 nM

The remaining compounds from weak to strong by IC50 [1], led by results:

IC50 [1]	Kd (human SOS1)	Compound
1930 nM	530 nM	C[C@@H](Nc1nn(C)c(=O)c2cc(=O)n(C3CC3)cc12)c1cc(Br)cs1 [Example 56, (R)-4-((1-(4-bromothiophen-2-yl)ethyl)amino)-6-cyclopropyl-2-methyl-2,6-dihydropyrido[3,4-d]pyridazine-1,7-dione]
1710 nM	1490 nM	C[C@H](Nc1nn(C)c(=O)c2cc(=O)n(C3CCOCC3)cc12)c1cccc2c1CCC2(F)F [Example 68, (S)-4-((1-(1,1-difluoro-2,3-dihydro-1H-inden-4-yl)ethyl)amino)-2-methyl-6-(tetrahydro-2H-pyran-4-yl)pyrido[3,4-d]pyridazine-1,7(2H,6H)-dione]
192 nM	75 nM	CC(=O)c1c(=O)n(C2CC2)cc2c(N[C@H](C)c3cccc(C(F)(F)F)c3C)nn(C)c(=O)c12 [Example 48, (R)-8-acetyl-6-cyclopropyl-2-methyl-4-((1-(2-methyl-3-(trifluoromethyl)phenyl)ethyl)amino)-2,6-dihydropyrido[3,4-d]pyridazine-1,7-dione]
69.8 nM	31 nM	C[C@@H](Nc1nn(C)c(=O)c2cc(=O)n(C3(C(F)(F)F)CC3)cc12)c1cccc(C(F)F)c1F [Example 71, (R)-4-((1-(3-(difluoromethyl)-2-fluorophenyl)ethyl)amino)-2-methyl-6-(1-(trifluoromethyl)cyclopropyl)-2,6-dihydropyrido[3,4-d]pyridazine-1,7-dione]
60.5 nM	24 nM	C[C@@H](Nc1nn(C)c(=O)c2cc(=O)n(C3(C(F)F)CC3)cc12)c1cccc(C(F)F)c1F [Example 43, (R)-4-((1-(3-(difluoromethyl)-2-fluorophenyl)ethyl)amino)-6-(1-(difluoromethyl)cyclopropyl)-2-methyl-2,6-dihydropyrido[3,4-d]pyridazine-1,7-dione]
54.9 nM	34 nM	C[C@@H](Nc1nn(C)c(=O)c2cc(=O)n(C3CC3)cc12)c1cccc(C(F)(F)C(C)(C)O)c1F [Example 42, (R)-6-cyclopropyl-4-((1-(3-(1,1-difluoro-2-hydroxy-2-methylpropyl)-2-fluorophenyl)ethyl)amino)-2-methyl-2,6-dihydropyrido[3,4-d]pyridazine-1,7-dione]
54.4 nM	29 nM	C[C@@H](Nc1nn(C)c(=O)c2cc(=O)n(C34CC(N5CCOCC5)(C3)C4)cc12)c1cccc(C(F)F)c1F [Example 50, (R)-4-((1-(3-(difluoromethyl)-2-fluorophenyl)ethyl)amino)-2-methyl-6-(3-morpholinobicyclo[1.1.1]pentan-1-yl)-2,6-dihydropyrido[3,4-d]pyridazine-1,7-dione]
